Columns and labels:
[1] = target: T1, ΔN-VDAC1 (Mus musculus, UniProt Q60932); assay: Channel conductance of N-terminally truncated VDAC1 reconstituted into a planar lipid bilayer; type: biochemical, murine; conditions: after addition of 40 μg/ml SOD1, mean ± SEM
T1 construct: inferred from pET21a vector, XhoI cloning and Ni-NTA purification) (C); made in house; host or cells: Escherichia coli BL21(DE3)
Method: (§1) Protein expression was induced for 3 h using 1 mM isopropyl-β-D-thiogalactopyranoside (IPTG; Sigma). Proteins were purified on agarose-packed nickel-nitrilotriacetic acid resin (Ni-NTA; Qiagen) in the presence of 8 M urea. Refolding of the eluted protein was performed essentially as described previously ([Hiller et al., 2008]).
The reconstitution of recombinant WT or ΔN-VDAC1 into a planar lipid bilayer (PLB) prepared from soybean asolectin, and subsequent single channel current recordings and data analysis were carried out as described previously ([Gincel et al., 2001]). Currents were recorded under voltage-clamp conditions before and 5 min after the addition of 40 μg of recombinant hSOD1^wt, hSOD1^G93A, or hSOD1^G85R to the cis compartment using a Bilayer Clamp BC-535B amplifier (Warner Instrument, Hamden, CT, United States). Current amplitude histograms were prepared using AxoGraph X software. Relative conductance was determined as the average steady-state conductance at a given voltage normalized to the conductance at 10 mV, the maximal conductance. Relative conductance-voltage plots were prepared using Microsoft Excel software.
(C) Relative conductance of ΔN-VDAC1 as a function of voltage in a step from 60 to –60 mV before (▲) and after addition of SOD1^WT (Δ). Relative conductance (conductance/maximal conductance) was determined as the average steady-state conductance at a given voltage normalized to the conductance at 10 mV, taken as the maximal conductance. […] (E–H) Similar experiments as in (A–D), except that mutant SOD1^G93A was used. (I–L) Similar experiments as in (A–D), except that mutant SOD1^G85R was used.

[2] = target: T2, recombinant full length VDAC1 (Mus musculus, UniProt Q60932); assay: Channel conductance of full length VDAC1 reconstituted into a planar lipid bilayer; type: biochemical, murine; conditions: for Conductance, VDAC1 + SOD1: planar lipid bilayer, after addition of 40 μg/ml SOD1, mean ± SEM, SEM
T2 construct: inferred from pET21a vector, XhoI cloning and Ni-NTA purification) (C); made in house; host or cells: Escherichia coli BL21(DE3)
T2 sequence (Q60932 14-296): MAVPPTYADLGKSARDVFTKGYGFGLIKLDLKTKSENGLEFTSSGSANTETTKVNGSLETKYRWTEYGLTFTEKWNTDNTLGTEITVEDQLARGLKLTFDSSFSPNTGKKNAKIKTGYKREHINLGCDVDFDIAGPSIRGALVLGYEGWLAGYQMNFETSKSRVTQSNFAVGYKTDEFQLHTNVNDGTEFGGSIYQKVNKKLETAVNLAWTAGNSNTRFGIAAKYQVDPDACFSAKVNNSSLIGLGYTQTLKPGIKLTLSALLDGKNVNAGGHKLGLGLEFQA
Method: as §1
Currents were recorded under voltage-clamp conditions before and 5 min after the addition of 40 μg of recombinant hSOD1^wt, hSOD1^G93A, or hSOD1^G85R to the cis compartment using a Bilayer Clamp BC-535B amplifier (Warner Instrument, Hamden, CT, United States). Current amplitude histograms were prepared using AxoGraph X software. […] Relative conductance-voltage plots were prepared using Microsoft Excel software.
Relative conductance (conductance/maximal conductance) was determined as the average steady-state conductance at a given voltage normalized to the conductance at 10 mV, considered the maximal conductance.

[3] = test system: NSC-34 cells transfected to express human mutant SOD1^G93A; assay: Rescue of mutant SOD1^G93A toxicity, cell viability (XTT / CellTiter 96 AQueous); type: cell-based, mouse; conditions: NSC-34 cells expressing SOD1^G93A, increasing peptide concentrations, 5 h, XTT assay; n = 3
Method: (§2) NSC-34 cells, a mouse motor neuron-like hybrid cell line, the A549 human lung adenocarcinoma and U-87MG human glioblastoma cell lines were incubated with the (1-26)N-Ter-Antp, D-(15-26)N-Ter-Antp, (1-20)N-Ter-Antp, (5-20)N-Ter-Antp, or (10-20)N-Ter-Antp peptides in the appropriate serum-free growth medium for 5 h at 37°C. Cells were harvested, and analyzed for cell death using propidium iodide (PI) staining and flow cytometry. For XTT, the CellTiter 96 AQueous one-solution cell proliferation assay was used to follow cell viability as described previously ([Leyton-Jaimes et al., 2016]).
(§3) NSC-34 (A), U-87MG (B), or A549 (C) cells were incubated with the indicated concentrations of (1-26)N-Ter-Antp (∙), D-(15-26) (19-26)N-Ter-Antp (▲), (1-20)N-Ter-Antp (∘), (5-20)N-Ter-Antp (□) or (10-20)N-Ter-Antp (◆) peptide for 5 h. Cell death was analyzed using PI staining and flow cytometry. […] Cell viability analysis was performed with the CellTiter 96 AQueous one-solution cell proliferation assay with ELISA at 490 nm. […] The significance of quantitative analysis of triplicates of different biological repeats (n = 3) was performed by Student’s t-test; ^∗∗P < 0.01. […] Twenty-four hours post-transfection, the cells were incubated for 5 h with (10-20)N-Ter-Antp peptide (20 μM) and then analyzed for apoptosis using acridine orange and ethidium bromide staining, as described previously ([McGahon et al., 1995]). Fluorescence microscopy images were analyzed and about 100 to 300 cells were counted for each treatment in representative microscopic fields. The significance of quantitative analysis of triplicates of different biological repeats (n = 3) was performed by one-way Anova; ^∗∗P < 0.01.
Cell viability was quantified using the XTT assay and apoptosis using acridine orange and ethidium bromide staining. […] Importantly, this effect was observed using the three non-cell death-inducing VDAC1-derived N-terminal peptides, i.e., the (1-20)-N-Ter-Antp, (5-20)-N-Ter-Antp and (10-20)-N-Ter-Antp peptides.

[4] = test system: A549 cells; assay: Cell death, PI staining and flow cytometry, A549; type: cell-based, human; conditions: 5 h, serum-free medium, 37°C
Method: as §2, §3

[5] = test system: U-87MG cells; assay: Cell death, PI staining and flow cytometry, U-87MG; type: cell-based, human; conditions: 5 h, serum-free medium, 37°C
Method: as §2, §3

[6] = test system: NSC-34 cells; assay: Cell death, PI staining and flow cytometry, NSC-34; type: cell-based, mouse; conditions: 5 h, serum-free medium, 37°C
Method: as §2, §3

[7] = target: T3, SOD1^G93A (Homo sapiens, UniProt P00441, G94A); assay: Microscale thermophoresis (MST) binding to SOD1^G93A
T3 construct: made in house; host or cells: sf-9 cells
T3 sequence (P00441 whole entry G94A): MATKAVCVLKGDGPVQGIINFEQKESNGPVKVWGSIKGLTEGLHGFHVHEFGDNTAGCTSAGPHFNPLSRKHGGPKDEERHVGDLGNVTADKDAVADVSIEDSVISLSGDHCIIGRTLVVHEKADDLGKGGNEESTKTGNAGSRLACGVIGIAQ
Method: (§4) Recombinant hSOD1^wt, hSOD1^G93A, and hSOD1^G85R were expressed in sf-9 cells and purified by hydrophobic interaction chromatography using phenyl-Sepharose 6 Fast Flow high sub (Amersham Biosciences), followed by ion exchange chromatography using a HiTrap Q-Sepharose anion exchange column (Amersham Biosciences), as described previously ([Hayward et al., 2002]).
(§5) Microscale thermophoresis analysis was performed using a NanoTemper Monolith NT.115 apparatus, as recently described ([Wienken et al., 2010]; [Zillner et al., 2012]). […] The results are presented as the bound fraction, calculated as follows: fraction bound 100 × (F − Fmin)/(Fmax − Fmin).
(§6) MST measures any variation in the thermal movement of a fluorescently labeled binding partner. The subsequent fluorescence depletion in a heated spot of the protein solution is measured as a function of increasing interacting partner concentration, with dissociation constants (KD) values being derived from the depletion curves ([Wienken et al., 2010]; Figure 1D).
(§7) Molecular weight standards are presented. […] After 20 min of incubation, 3–5 μl aliquots were loaded into MST-grade glass capillaries (NanoTemper Technologies) and thermophoresis was measured with a NanoTemper Monolith-NT115 system. The percentage change in normalized fluorescence (ΔF Norm %) is plotted as a function of protein concentration. […]

[8] = target: T4, SOD1^G85R (Homo sapiens, UniProt P00441, G86R); assay: Microscale thermophoresis (MST) binding to SOD1^G85R; conditions: fluorescently labeled SOD1^G85R 230 nM, peptide 0.001–50 μM, 10 mM HEPES pH 7.4, 20 min, duplicate reads of triplicate experiments, read-out: EC50 (binding affinity, dissociation constant) of peptide to SOD1^G85R
T4 construct: made in house; host or cells: sf-9 cells
T4 sequence (P00441 whole entry G86R): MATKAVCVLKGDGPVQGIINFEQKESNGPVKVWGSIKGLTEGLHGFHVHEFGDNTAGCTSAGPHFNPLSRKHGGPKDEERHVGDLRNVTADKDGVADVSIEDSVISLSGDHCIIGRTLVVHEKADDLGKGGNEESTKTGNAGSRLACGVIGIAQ
Method: as §4, §5, §6, §7

[9] = target: T5, SOD1^WT (Homo sapiens, UniProt P00441); assay: Microscale thermophoresis (MST) binding to SOD1^WT; conditions: read-out: EC50 (binding affinity, dissociation constant) of peptide to SOD1^WT
T5 construct: made in house; host or cells: sf-9 cells
T5 sequence (P00441 whole entry): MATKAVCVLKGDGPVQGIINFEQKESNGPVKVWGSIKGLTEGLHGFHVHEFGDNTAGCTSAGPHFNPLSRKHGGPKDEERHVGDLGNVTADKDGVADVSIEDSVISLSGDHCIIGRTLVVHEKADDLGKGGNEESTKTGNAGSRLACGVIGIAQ
Method: as §4, §5, §6, §7

[10] = test system: SH-SY5Y cells expressing mutant SOD1^G93A; assay: Apoptosis, acridine orange/ethidium bromide staining, SOD1^G93A; type: cell-based; conditions: peptide 20 μM, 5 h, 24 h post-transfection, n = 3
Method: (§8) Apoptotic cell death was also analyzed using Acridine Orange (AcOr)/ethidium bromide (EtBr) staining ([McGahon et al., 1995]). Cells in 24-well plates were washed with 200 μl PBS and 10 μl of a solution containing […] in PBS was added. The cells were then visualized by fluorescence microscopy (ZOE fluorescence cell imager, Bio-Rad), images were recorded and cells at early and late apoptotic stages were counted.
as §3, with “The significance of quantitative analysis of triplicates of different biological repeats (n = 3) was performed by one-way Anova; ^∗∗P < 0.01.” left out

[11] = test system: SH-SY5Y cells expressing SOD1^G93A or SOD1^G37R; assay: Co-localization of misfolded SOD1 with VDAC1, immunostaining and confocal microscopy; type: cell-based; conditions: peptide 20 μM, 5 h, 24 h post-transfection; anti-VDAC1 and B8H10 antibodies
Method: For immunostaining, SH-SY5Y cells (4.5 × 10^4) were grown on sterilized coverslips in 24-well plates. 30 h post-transfection, cells were fixed using 4% paraformaldehyde (PFA; diluted in PBS) for 15 min, and then washed 3 times with PBS (5 min each wash). Cells were then permeabilized with 0.3% Triton X-100 in PBS for 5 min followed by washing with PBS. Cells were then blocked for 1 h with blocking buffer (1% BSA free fatty acids diluted in PBS). Anti-VDAC1 polyclonal antibody (ab15895) and mouse anti misfolded SOD1 (B8H10, Medimabs) were incubated at room temperature for 1–2 h in a buffer of 1% BSA free fatty acids and 0.3% Triton-X100 in PBS. Following incubation with primary antibodies, cells were washed with PBS and incubated with fluorescent conjugated secondary Alexa Flour 488 anti-rabbit and Alexa flour 647 anti-mouse antibodies. The coverslips were carefully dried and mounted on slides using Immumount (Immumount^TM, Thermo). After overnight drying, images were acquired on an Olympus IX81 confocal microscope.
Twenty-four hours post-transfection, the cells were incubated for 5 h with (10-20)N-Ter-Antp peptide (20 μM) and then analyzed for co-localization using a confocal microscope. […] Scale bar, 10 μm.

[12] = test system: SH-SY5Y cells expressing mutant SOD1^G37R; assay: Apoptosis, acridine orange/ethidium bromide staining, SOD1^G37R; type: cell-based; conditions: peptide 20 μM, 5 h, 24 h post-transfection, n = 3
Method: as §8
as §3, with “The significance of quantitative analysis of triplicates of different biological repeats (n = 3) was performed by one-way Anova; ^∗∗P < 0.01.” left out

T1 sequence (Q60932 40-296, stated change not applied): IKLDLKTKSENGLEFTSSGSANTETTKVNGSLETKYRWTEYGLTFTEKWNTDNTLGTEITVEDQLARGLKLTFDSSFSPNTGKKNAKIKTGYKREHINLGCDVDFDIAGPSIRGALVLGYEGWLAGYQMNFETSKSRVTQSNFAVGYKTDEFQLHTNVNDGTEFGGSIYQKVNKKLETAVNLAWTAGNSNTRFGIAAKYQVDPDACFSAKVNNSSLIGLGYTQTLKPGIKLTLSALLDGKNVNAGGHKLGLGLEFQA

Conductance, ΔN-VDAC1 + SOD1 [1] [nS] | Compound | Cell death induction in A549 cells [4] | Cell death induction in U-87MG cells [5] | Cell death induction in NSC-34 cells [6] | other results
3.45 ± 0.01 | SOD1^G93A: recombinant human mutant SOD1 G93A expressed in sf-9 cells |  |  |  | 
3.69 ± 0.13 | SOD1^WT: recombinant wild type human SOD1 expressed in sf-9 cells |  |  |  | effect on VDAC1 current ([2]; highest concentration 60 μg/ml, current-time traces at −10 or 10 mV): had no effect on the current; Conductance, VDAC1 + SOD1 [2]: 3.84 ± 0.1 nS
 | 5-PTYADLGKSARDVFTK-20- RQIKIWFQNRRMKWKK [(5-20)-N-Ter-Antp, like (1-20)-N-Ter-Antp but shortened by four amino acids at the N-terminus] | could not induce cell death | could not induce cell death | could not induce cell death | Effect on SOD1^G93A toxicity (cell viability) [3]: reduced the toxic effect of SOD1^G93A in a concentration-dependent manner
3.92 ± 0.08 | SOD1^G85R: recombinant human mutant SOD1 G85R expressed in sf-9 cells |  |  |  | Conductance, VDAC1 + SOD1 [2]: 2.3 ± 0.35 nS
 | 159-ETAKSRVTQSNFAVGYKT-177 [LP3, reference compound] |  |  |  | Binding to mutant SOD1 compared with the (1-26)-N-terminal peptide ([7]; MST, fluorescently labeled SOD1^G93A 675 nM, LP3 6–40 μM, HEPES buffer): significantly lower binding to mutant SOD1
 | 14-RDVFTKGYGFGL-26- RQIKIWFQNRRMKWKK [D-(15-26)-N-Ter-Antp] | induced massive cell death | induced massive cell death | induced massive cell death | 
 | 1-MAVPPTYADLGKSARDVFTKG YGFGL-26- RQIKIWFQNRRMKWKK [(1-26)-N-Ter-Antp] | induced massive cell death | induced massive cell death | induced massive cell death | 
 | CSCC[C@H](N)C(=O)N[C@@H](C)C(=O)N[C@H](C(=O)N1CCC[C@H]1C(=O)N1CCC[C@H]1C(=O)N[C@H](C(=O)N[C@@H](Cc1ccc(O)cc1)C(=O)N[C@@H](C)C(=O)N[C@@H](CC(=O)O)C(=O)N[C@@H](CC(C)C)C(=O)NCC(=O)N[C@@H](CCCCN)C(=O)N[C@@H](CO)C(=O)N[C@@H](C)C(=O)N[C@@H](CCCNC(=N)N)C(=O)N[C@@H](CC(=O)O)C(=O)N[C@H](C(=O)N[C@@H](Cc1ccccc1)C(=O)N[C@H](C(=O)N[C@@H](CCCCN)C(=O)NCC(=O)N[C@@H](Cc1ccc(O)cc1)C(=O)NCC(=O)N[C@@H](Cc1ccccc1)C(=O)NCC(=O)N[C@@H](CC(C)C)C(=O)O)[C@@H](C)O)C(C)C)[C@@H](C)O)C(C)C [(1-26)N-Terminal] |  |  |  | EC50 [7]: 3.75 µM; EC50 [8]: 3.75 µM; EC50 [9]: > 200 µM
 | 10-LGKSARDVFTK-20- RQIKIWFQNRRMKWKK [(10-20)-N-Ter-Antp, like (1-20)-N-Ter-Antp but shortened by nine amino acids at the N-terminus] | could not induce cell death | could not induce cell death | could not induce cell death | Effect on SOD1^G93A toxicity (cell viability) [3]: reduced the toxic effect of SOD1^G93A in a concentration-dependent manner; decrease of SOD1^G93A-mediated cell death [10]: 68%; Co-localization of misfolded SOD1 with VDAC1 [11]: co-localization was greatly eliminated; decrease of SOD1^G37R-mediated cell death [12]: 81%
